Data as given in ChEMBL document CHEMBL1201862, “PubChem BioAssay data set” (2004).
Calls of active or inactive are those of the source.

How the values were obtained:
[1] = target: Cytochrome P450 2C19 (Homo sapiens, UniProt P33261); assay: Cytochrome panel assay with activity outcomes. Panel member name: p450-cyp2c19 Compounds with AC50 equal or less than 10 uM are considered active; assay type: functional
[2] = target: Cytochrome P450 2D6 (Homo sapiens, UniProt P10635);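 note: CYP2D6 member of a cytochrome P450 panel assay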
Sequence of Cytochrome P450 2D6 (P10635 whole entry): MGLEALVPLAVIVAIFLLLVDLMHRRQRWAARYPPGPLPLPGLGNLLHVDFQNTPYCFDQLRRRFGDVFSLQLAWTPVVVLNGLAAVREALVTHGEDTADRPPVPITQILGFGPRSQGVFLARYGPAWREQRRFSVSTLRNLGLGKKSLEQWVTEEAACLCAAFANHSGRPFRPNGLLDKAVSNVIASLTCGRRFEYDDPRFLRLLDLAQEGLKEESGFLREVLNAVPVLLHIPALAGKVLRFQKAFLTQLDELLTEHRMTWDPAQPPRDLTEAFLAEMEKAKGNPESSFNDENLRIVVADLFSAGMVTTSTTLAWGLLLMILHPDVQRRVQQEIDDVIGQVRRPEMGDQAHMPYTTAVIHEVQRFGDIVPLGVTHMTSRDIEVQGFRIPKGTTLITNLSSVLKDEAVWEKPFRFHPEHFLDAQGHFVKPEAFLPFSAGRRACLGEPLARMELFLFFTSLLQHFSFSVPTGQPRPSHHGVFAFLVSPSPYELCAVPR

[3] = Luminescence Cell-Based Dose Response HTS to Identify Inhibitors of 5'UTR Stem-Loop Driven Prion Protein mRNA Translation in H4 Neuroglioblastoma Cells. [Related pubchem assays: 1827 (Project Summary), 1813 (Primary HTS)]; assay type: functional
[4] = luciferase reporter signal suppression in cells – H4 neuroglioma cells, luminescence, dose response (AID 1990); assay type: functional, cell-based
[5] = alpha-synuclein stem-loop luciferase translation blockers – H4 neuroglioma cells, luminescence, confirmation (AID 1988); assay type: functional, cell-based
[6] = target: Cytochrome P450 3A4 (Homo sapiens, UniProt P08684);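 note: CYP3A4 tested as one member of a cytochrome P450 panel screen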
Sequence of Cytochrome P450 3A4 (P08684 whole entry): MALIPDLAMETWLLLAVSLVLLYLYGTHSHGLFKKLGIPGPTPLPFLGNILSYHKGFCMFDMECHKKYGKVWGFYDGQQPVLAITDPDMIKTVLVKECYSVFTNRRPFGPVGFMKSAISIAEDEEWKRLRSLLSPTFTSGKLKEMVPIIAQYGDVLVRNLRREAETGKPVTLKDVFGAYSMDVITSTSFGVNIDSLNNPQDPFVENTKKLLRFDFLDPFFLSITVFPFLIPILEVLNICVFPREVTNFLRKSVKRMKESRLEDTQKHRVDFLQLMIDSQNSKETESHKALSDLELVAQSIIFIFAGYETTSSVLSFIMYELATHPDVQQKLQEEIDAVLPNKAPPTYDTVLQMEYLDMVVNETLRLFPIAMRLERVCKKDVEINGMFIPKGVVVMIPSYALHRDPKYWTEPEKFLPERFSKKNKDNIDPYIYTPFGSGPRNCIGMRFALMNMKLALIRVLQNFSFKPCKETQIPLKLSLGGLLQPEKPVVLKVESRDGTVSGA

[7] = system: Streptococcus sp. 'group A'; assay: Streptococcus pyogenes SK(-)GAS viability under kanamycin – luminescence, BacTiterGlo, confirmation, counter-screen for streptokinase expression inhibitor project, dose response (AID 1900); assay type: functional, organism-based
[8] = target: T1, Streptokinase A (Streptococcus pyogenes serotype M1, UniProt P10520); assay: viability-normalized secreted streptokinase activity reduction – plasminogen activation absorbance, OD405, dose response (AID 1914); assay type: functional, Streptococcus pyogenes M1 GAS;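 note: secreted streptokinase activity via plasminogen activation per viability signal from cell pellet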
T1 sequence (P10520 whole entry): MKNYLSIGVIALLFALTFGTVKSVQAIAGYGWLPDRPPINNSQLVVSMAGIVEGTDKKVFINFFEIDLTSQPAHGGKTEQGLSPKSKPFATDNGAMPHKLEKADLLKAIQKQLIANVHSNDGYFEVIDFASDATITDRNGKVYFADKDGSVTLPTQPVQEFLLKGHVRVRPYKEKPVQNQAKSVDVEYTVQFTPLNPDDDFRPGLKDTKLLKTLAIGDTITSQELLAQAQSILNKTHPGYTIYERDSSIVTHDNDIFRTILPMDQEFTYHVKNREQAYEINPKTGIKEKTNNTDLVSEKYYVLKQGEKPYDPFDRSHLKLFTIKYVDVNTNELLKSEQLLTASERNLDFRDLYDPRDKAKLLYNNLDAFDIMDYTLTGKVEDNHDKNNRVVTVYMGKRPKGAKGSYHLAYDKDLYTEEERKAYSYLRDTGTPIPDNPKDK

[9] = system: Streptococcus; assay: GAS UMAA2166 growth inhibition – luminescence, BacTiterGlo, counter-screen for streptokinase expression inhibitor project, dose response (AID 1915); assay type: functional, organism-based;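 note: potency for reduction of bacterial viability or growth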

Sequence of Cytochrome P450 2C19 (P33261 whole entry): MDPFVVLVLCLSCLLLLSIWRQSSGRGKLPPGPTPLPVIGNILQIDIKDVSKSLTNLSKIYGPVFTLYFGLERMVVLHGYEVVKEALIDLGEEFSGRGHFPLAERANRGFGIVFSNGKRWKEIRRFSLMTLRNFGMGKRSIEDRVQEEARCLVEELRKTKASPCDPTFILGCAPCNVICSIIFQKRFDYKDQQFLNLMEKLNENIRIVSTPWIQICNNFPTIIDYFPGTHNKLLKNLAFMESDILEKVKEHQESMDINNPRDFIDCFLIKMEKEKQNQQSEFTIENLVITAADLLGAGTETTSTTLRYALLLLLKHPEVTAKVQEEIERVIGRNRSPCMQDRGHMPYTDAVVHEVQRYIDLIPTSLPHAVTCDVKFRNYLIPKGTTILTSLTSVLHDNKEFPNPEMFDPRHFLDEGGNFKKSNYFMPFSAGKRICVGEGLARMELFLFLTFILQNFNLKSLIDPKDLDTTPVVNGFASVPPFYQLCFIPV

CN(C)c1ccc(-c2nc(NCc3cccnc3)c3ccccc3n2)cc1
AC50 ([1]; read-out: AC50): 10 µM (inconclusive)

O=C(c1ccncc1)N1CCC2(CCN(Cc3nccs3)CC2)CC1
AC50 [2]: 15.8 µM (inconclusive)

CCc1ccc(CNC(=O)C2CCN(S(=O)(=O)N3CC(C)CC(C)C3)CC2)cc1 (stereo unspecified)
EC50 [3]: > 120 µM (not active) | EC50 [4]: > 120 µM (not active) | EC50 [5]: 93.3 µM (active)

COc1ccc(CCNS(=O)(=O)c2cccc3cccnc23)cc1OC
EC50 [3]: > 120 µM (not active) | EC50 [4]: > 120 µM (not active) | EC50 [5]: > 120 µM (not active)

CCCC[C@@H]1C[C@H]1C(NC(=O)Cc1ccccc1)c1ccc(-c2ccccc2)cc1 (stereo partly specified)
AC50 [6]: 12.6 µM (inconclusive)

CC(=O)NCCNc1ncncc1-c1ccccc1CN(C)C
AC50 [2]: 39.8 µM (inconclusive) | AC50 [6]: 12.6 µM (inconclusive)

CS(=O)(=O)N1CCC2(CCCN(C(c3ccccc3)c3ccccc3)C2)CC1
AC50 ([1]; read-out: AC50): 20 µM (inconclusive)

CCOC(=O)c1nnn(-c2nonc2-n2cccc2)c1CN1CCC(C)CC1
EC50 [7]: 9.92 µM (active) | EC50 [8]: 14.9 µM (active) | EC50 [9]: > 150 µM (not active)

O=C(C1CCCN(S(=O)(=O)c2ccc(Br)cc2)C1)N1CCN(Cc2ccccc2)CC1 (stereo unspecified)
EC50 [3]: > 120 µM (not active) | EC50 [4]: 15.5 µM (active) | EC50 [5]: 22.7 µM (active)

O=C(c1cnc(N2CCN(c3ncccn3)CC2)c2ccccc12)N1CCN(c2ncccn2)CC1
AC50 [2]: 11.2 µM (inconclusive) | AC50 [6]: 39.8 µM (inconclusive)

CCCc1nc2oc3c(NCCCN(C)C)ncnc3c2c2c1CCCC2
EC50 [3]: > 120 µM (not active) | EC50 [4]: 12.5 µM (active) | EC50 [5]: 8.73 µM (active)

CCC(C)(C)n1nnnc1C(c1ccc(C)cc1)N1CCC(C)CC1 (stereo unspecified)
AC50 [2]: 17.8 µM (inconclusive)

COC(=O)C1N2C(=O)[C@@H](NC(=O)COc3ccccc3)[C@H]2SC1(C)C (stereo partly specified)
EC50 [7]: 0.535 µM (active) | EC50 [9]: 0.889 µM (active)

COc1ccc(O[C@H]2C=C[C@@H](c3ccccc3)O[C@H]2COC(=O)N2CCCCC2)cc1
AC50 [2]: 3.98 µM (inconclusive)

CCOc1ccc(NC(=O)CSc2nnc(Cc3ccccc3)c(=O)n2N)cc1
EC50 [7]: > 150 µM (not active) | EC50 [8]: > 150 µM (not active) | EC50 [9]: > 150 µM (not active)

Cc1ccc(CCN2CC(C(=O)NCCN3CCCCCC3)CC2=O)cc1 (stereo unspecified)
AC50 [2]: 20 µM (inconclusive) | AC50 [1]: inconclusive | AC50 [6]: 35.5 µM (inconclusive)

O=C(/C=C/c1ccccc1)N/C(=C/c1ccccc1)C(=O)Nc1ccccc1O
AC50 [2]: 22.4 µM (inconclusive) | AC50 ([1]; read-out: AC50): 17.8 µM (inconclusive)

CCOc1ccccc1NS(=O)(=O)c1ccc(Br)s1
EC50 [3]: 25.2 µM (active) | EC50 [4]: > 120 µM (not active) | EC50 [5]: > 120 µM (not active)

CC(=O)Nc1ccc(S(=O)(=O)N(Cc2cccnc2)Cc2cc3ccc(C)cc3nc2O)cc1
EC50 [3]: > 120 µM (not active) | EC50 [4]: > 120 µM (not active) | EC50 [5]: > 120 µM (not active)

Cc1ccc(Sc2nc(C)cc(C)c2S(C)(=O)=O)cc1
AC50 [2]: 17.8 µM (inconclusive) | AC50 [6]: 14.1 µM (inconclusive)

Cc1ccc2[nH]c(SCC(=O)Nc3nnc(SCC(N)=O)s3)nc2c1
AC50 ([1]; read-out: AC50): 22.4 µM (inconclusive) | AC50 [6]: 22.4 µM (inconclusive)

Cc1cccc(OCC(=O)NCC(=O)N/N=C/c2cc(Br)cc(Br)c2O)c1
EC50 [7]: 0.486 µM (active) | EC50 [9]: 1.66 µM (active)

CNCCc1c[nH]c2ccc(O)cc12
AC50 [2]: 39.8 µM (inconclusive)

O=C(O)CCC(=O)N1CCC[C@H]1C(=O)O
AC50 [1]: inconclusive

O=[N+]([O-])c1cc(/C=N/O)ccc1SCc1ccccc1
AC50 ([1]; read-out: AC50): 6.31 µM (inconclusive) | AC50 [6]: 11.2 µM (inconclusive)
